From paper PMC12037410, “Pharmacological targeting of BMAL1 modulates circadian and immune pathways” (Nature Chemical Biology, 2025)

biological target: BMAL1 (Homo sapiens, UniProt O00327); design: PASB domain (residues 338–449); Protein thermal shift (PTS) fragment screen on recombinant human BMAL1(PASB), shift of melting temperature; settings: dTmB; binder
Sequence (O00327 338-449): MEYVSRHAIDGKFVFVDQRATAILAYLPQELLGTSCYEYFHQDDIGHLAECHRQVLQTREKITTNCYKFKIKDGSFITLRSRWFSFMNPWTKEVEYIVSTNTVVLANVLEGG

Structure (SMILES)	Bmal1(PASB) dTmB [°C]
C[N+](C)(CCO)Cc1ccccc1 [Prestw-Frag-1017, Compound 159]	-0.27
COCCOC(=O)c1ccc(N)cc1 [Prestw-Frag-2453, Compound 317]	-0.58
CCOc1ccccc1O [Prestw-Frag-2995, Compound 314]	-0.47
O=C1COc2cc(O)ccc21 [Prestw-Frag-3703, Compound 77]	0.62
CNCC(c1ccc(OC)cc1)C1(O)CCCCC1 (stereo not shown) [Prestw-Frag-1523, Compound 157]	-0.81
COc1ccc(CCN2CCC(N)CC2)cc1 [Prestw-Frag-1051, Compound 427]	-0.58
Cc1nnc(N)s1 [Prestw-Frag-1161, Compound 49]	-1.77
NC(N)=NCc1cccc(I)c1 [Prestw-Frag-2111, Compound 312]	-0.90
NCc1cscn1 [Prestw-Frag-3747, Compound 29]	-1.05
OCCn1ccnc1 [Prestw-Frag-1303, Compound 120]	0.13
O=C(O)c1cc(=O)c2ccccc2o1 [Prestw-Frag-2352, Compound 352]	-0.25
COC(=O)c1ccc(N)cc1 [Prestw-Frag-2346, Compound 380]	-0.11
OC(c1ccccc1)c1ccc(Cl)cc1 (stereo not shown) [Prestw-Frag-1106, Compound 474]	-2.07
NC1CCC(=O)NC1=O (stereo not shown) [Prestw-Frag-3716, Compound 102]	-0.05
c1ccc(CNc2ccccn2)cc1 [Prestw-Frag-1475, Compound 204]	-1.06
OCc1cc2ccccc2[nH]1 [Prestw-Frag-1297, Compound 419]	0.70
O=C(O)c1ccccc1O [Prestw-Frag-1045, Compound 55]	-0.68
O=C(COc1ccc(Cl)cc1)N1CCNCC1 [Prestw-Frag-1832, Compound 244]	-1.08
COc1ccc(CNCCN(C)C)cc1 [Prestw-Frag-1887, Compound 172]	-0.14
O=C(C1COc2ccccc2O1)N1CCNCC1 (stereo not shown) [Prestw-Frag-2389, Compound 381]	-0.24
c1ccc2c3c([nH]c2c1)CCCC3 [Prestw-Frag-2780, Compound 46]	-0.19
CN(C)C(=O)Oc1ccccc1 [Prestw-Frag-1540, Compound 384]	-0.26
COc1ccc(S(=O)(=O)N2CCNCC2)cc1 [Prestw-Frag-3313, Compound 215]	-0.02
CC(=O)Nc1ncc([N+](=O)[O-])s1 [Prestw-Frag-1750, Compound 291]	0.07
O=C1CC2(CCCC2)CC(=O)N1 [Prestw-Frag-3680, Compound 36]	-2.38
Cc1ccc(C#N)c(=O)[nH]1 [Prestw-Frag-2669, Compound 177]	-0.34
O=C(OC1CCCCC1)c1ccccc1O [Prestw-Frag-1382, Compound 265]	0.09

Structure (SMILES)	Bmal1(PASB) dTmB [°C]
CC(O)(c1ccccc1)c1ccccn1 (stereo not shown) [Prestw-Frag-2237, Compound 355]	-0.76
Clc1cccc(CN2CCNCC2)c1 [Prestw-Frag-1700, Compound 62]	-0.92
OCc1cc(O)cc(O)c1 [Prestw-Frag-1935, Compound 76]	-0.85
OCCc1ccc(Cl)cc1 [Prestw-Frag-3062, Compound 418]	0.02
OC(c1ccc(Cl)cc1)c1ccccn1 (stereo not shown) [Prestw-Frag-1346, Compound 414]	-1.29
c1cnc2[nH]ncc2c1 [Prestw-Frag-1428, Compound 174]	-0.31
c1ccc2c(c1)CNc1ccccc1C2 [Prestw-Frag-1722, Compound 6]	-1.75
NC(=O)c1ccccc1O [Prestw-Frag-1439, Compound 86]	0.06
CCOc1ccccc1C(=N)N [Prestw-Frag-3314, Compound 150]	-0.32
O=C1Nc2ccccc2Nc2ccccc21 [Prestw-Frag-1904, Compound 439]	0.05
OCc1ccncc1 [Prestw-Frag-2303, Compound 179]	-0.35
Nc1cc2ccccc2oc1=O [Prestw-Frag-1001, Compound 197]	0.68
c1ccc(C2COCCN2)cc1 (stereo not shown) [Prestw-Frag-3705, Compound 182]	-0.30
O=C1OCc2ccccc21 [Prestw-Frag-2144, Compound 404]	-0.23
O=C1CNS(=O)(=O)c2ccsc21 [Prestw-Frag-2176, Compound 30]	-4.81
NCCc1ccc(O)cc1 [Prestw-Frag-2070, Compound 299]	-0.26
COc1ccc(CN2CCNCC2)cc1 [Prestw-Frag-2212, Compound 304]	-0.50
COC(=O)C(O)(c1ccccc1)C1CCCCC1 (stereo not shown) [Prestw-Frag-1867, Compound 446]	-1.54
CN1CCN(c2cc(N)ncn2)CC1 [Prestw-Frag-3262, Compound 191]	-0.17
O=C(Cc1ccccc1)c1ccccc1 [Prestw-Frag-2219, Compound 440]	-0.71
O=C1CCOc2ccccc21 [Prestw-Frag-1740, Compound 360]	-0.05
S=c1[nH]cc[nH]1 [Prestw-Frag-2373, Compound 253]	-1.25
NCc1c(N)ccc(Cl)c1Cl [Prestw-Frag-1039, Compound 337]	0.01
CC(C(=O)O)c1cccc(F)c1 (stereo not shown) [Prestw-Frag-3706, Compound 79]	0.26
CCCCOc1cc(C(=O)OC)ccc1N [Prestw-Frag-2253, Compound 206]	-0.90
CN1C(=O)CCC1=O [Prestw-Frag-2713, Compound 293]	0.17
O=C(c1ccccc1)c1ccc(Br)cc1 [Prestw-Frag-2912, Compound 22]	-1.94

Structure (SMILES)	Bmal1(PASB) dTmB [°C]
Nc1ccc(CS(=O)(=O)N2CCCC2)cc1 [Prestw-Frag-3341, Compound 142]	-0.24
O=C(O)c1ccccc1NCc1ccco1 [Prestw-Frag-2052, Compound 70]	-0.26
Cc1oncc1C(N)=O [Prestw-Frag-1128, Compound 133]	-0.10
O=c1[nH]nc(Cc2ccccc2)c2ccccc12 [Prestw-Frag-1561, Compound 106]	-0.90
NC(=O)CN1C(=O)c2ccccc2C1=O [Prestw-Frag-1661, Compound 297]	-0.12
Clc1ccc(CNc2ccccn2)cc1 [Prestw-Frag-2356, Compound 344]	-0.84
COC(=O)C(c1ccccc1)c1ccccc1 [Prestw-Frag-1013, Compound 353]	-1.32
OCc1cccnc1 [Prestw-Frag-2304, Compound 272]	-0.06
Cc1c[nH]c(=O)[nH]c1=O [Prestw-Frag-2017, Compound 255]	-0.13
Nc1c(Cl)ccc2nsnc12 [Prestw-Frag-1492, Compound 2]	-1.34
COc1ccccc1OCCCO [Prestw-Frag-1335, Compound 370]	4.16
Nc1ccc[nH]c1=O [Prestw-Frag-1060, Compound 123]	-2.04
COc1cccc2c1CCCC2=O [Prestw-Frag-1236, Compound 356]	-1.28
O=C(O)CCC(=O)Nc1ccccc1 [Prestw-Frag-2383, Compound 124]	-0.33
O=C(c1ccc(C(F)(F)F)cc1)C1CCCCC1 [Prestw-Frag-3334, Compound 225]	-0.21
Oc1ccc(-c2ccc(F)cc2F)cc1 [Prestw-Frag-1237, Compound 467]	-0.75
Cc1ncsc1CCO [Prestw-Frag-1098, Compound 189]	-0.60
OC1CCN(c2ccccc2F)CC1 [Prestw-Frag-2803, Compound 151]	-0.09
CS(=O)(=O)c1ccc(N)cc1 [Prestw-Frag-1214, Compound 111]	-0.40
Nc1ncns1 [Prestw-Frag-3683, Compound 69]	-0.32
O=C(O)c1cccnc1Nc1cccc(Cl)c1 [Prestw-Frag-2807, Compound 229]	-0.34
CN(C)C(c1ccccc1)c1ccccc1 [Prestw-Frag-2100, Compound 331]	-1.24
CCCC(=O)c1ccc(F)cc1 [Prestw-Frag-1368, Compound 311]	-0.19
CC(N)C(=O)c1ccccc1 (stereo not shown) [Prestw-Frag-1941, Compound 223]	-0.18
NCC1(c2ccccc2)CC1 [Prestw-Frag-3751, Compound 367]	-0.24
